Assay results: ChEMBL document CHEMBL5149994, “Anticancer potential of indirubins in medicinal chemistry: Biological activity, structural modification, and structure-activity relationship” (Eur J Med Chem, 2021)
Each block holds one molecule with its values, some of them ahead of it.

How the values were obtained:
[1] = system: IMR-32; assay: Antiproliferative activity against human IMR-32 cells assessed as cell growth inhibition; type: functional, cell-based
[2] = system: SK-N-SH; assay: Antiproliferative activity against human SK-N-SH cells assessed as cell growth inhibition; type: functional, cell-based
[3] = target: Tyrosine-protein kinase JAK1 (Homo sapiens, UniProt P23458); assay: Inhibition of recombinant JAK1 (unknown origin)
[4] = target: T1, Tyrosine-protein kinase JAK2 (Homo sapiens, UniProt O60674); assay: Inhibition of recombinant JAK2 (unknown origin)
[5] = target: Non-receptor tyrosine-protein kinase TYK2 (Homo sapiens, UniProt P29597); assay: Inhibition of recombinant Tyk2 (unknown origin)
[6] = target: Tyrosine-protein kinase HCK (Homo sapiens, UniProt P08631); assay: Inhibition of recombinant Hck (unknown origin)
[7] = target: Proto-oncogene tyrosine-protein kinase Src (Homo sapiens, UniProt P12931); assay: Inhibition of recombinant c-Src (unknown origin)
[8] = system: MIA PaCa-2; assay: Antiproliferative activity against human MIA PaCa-2 cells assessed as cell growth inhibition measured after 42 hrs by MTS assay; type: functional, cell-based; settings: MIA PaCa-2, 42 h
[9] = system: BXPC-3; assay: Antiproliferative activity against human BXPC-3 cells assessed as cell growth inhibition measured after 42 hrs by MTS assay; type: functional, cell-based; settings: BXPC-3, 42 h
[10] = system: PANC-1; assay: Antiproliferative activity against human PANC-1 cells assessed as cell growth inhibition measured after 42 hrs by MTS assay; type: functional, cell-based; settings: PANC-1, 42 h
[11] = target: Tyrosine-protein kinase Lyn (Homo sapiens, UniProt P07948); assay: Inhibition of recombinant Lyn (unknown origin)
[12] = system: K-562R; assay: Antiproliferative activity against imatinib-resistant human K-562R cells assessed as cell growth inhibition measured after 72 hrs by MTT assay; type: functional, cell-based
[13] = system: K562; assay: Antitumor activity against human K562 cells xenografted in BALB/c mouse assessed as reduction in tumour volume at 6 mg/kg, ip treated every other day for 2 weeks relative to control; type: functional; set-up: scale not given: the % may be the effect or the level left
[14] = target: T2, Receptor-type tyrosine-protein kinase FLT3 (Homo sapiens, UniProt P36888); assay: Inhibition of recombinant FLT3 (unknown origin) by HTRF assay
T2 sequence (P36888 whole entry): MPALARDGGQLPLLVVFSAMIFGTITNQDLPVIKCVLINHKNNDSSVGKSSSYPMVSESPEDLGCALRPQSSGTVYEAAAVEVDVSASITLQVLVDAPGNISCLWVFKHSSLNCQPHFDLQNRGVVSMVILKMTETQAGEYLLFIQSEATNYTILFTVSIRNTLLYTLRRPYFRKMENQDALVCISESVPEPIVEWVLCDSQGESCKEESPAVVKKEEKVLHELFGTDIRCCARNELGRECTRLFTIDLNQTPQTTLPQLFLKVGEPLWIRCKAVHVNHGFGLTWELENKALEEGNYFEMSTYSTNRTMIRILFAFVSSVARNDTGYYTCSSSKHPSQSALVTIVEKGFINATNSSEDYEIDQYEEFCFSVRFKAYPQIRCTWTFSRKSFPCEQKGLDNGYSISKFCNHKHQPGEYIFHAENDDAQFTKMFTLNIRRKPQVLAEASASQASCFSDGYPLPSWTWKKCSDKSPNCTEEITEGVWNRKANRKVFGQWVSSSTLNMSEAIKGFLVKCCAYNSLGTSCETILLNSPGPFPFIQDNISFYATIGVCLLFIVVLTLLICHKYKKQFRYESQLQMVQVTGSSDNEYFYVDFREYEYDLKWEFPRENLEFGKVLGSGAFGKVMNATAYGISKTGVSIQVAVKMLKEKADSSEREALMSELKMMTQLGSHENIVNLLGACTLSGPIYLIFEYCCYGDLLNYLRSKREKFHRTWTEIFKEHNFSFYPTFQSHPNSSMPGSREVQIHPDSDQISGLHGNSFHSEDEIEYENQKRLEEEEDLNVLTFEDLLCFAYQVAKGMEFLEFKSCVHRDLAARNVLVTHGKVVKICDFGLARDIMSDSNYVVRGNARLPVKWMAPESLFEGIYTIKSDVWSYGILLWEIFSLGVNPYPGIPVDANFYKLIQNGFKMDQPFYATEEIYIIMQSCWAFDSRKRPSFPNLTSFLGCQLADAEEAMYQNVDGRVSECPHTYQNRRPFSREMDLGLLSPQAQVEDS

[15] = target: T2, Receptor-type tyrosine-protein kinase FLT3; assay: Inhibition of FLT3 (unknown origin)
[16] = system: MV4-11; assay: Cytotoxicity in human MV4-11 cells assessed as cell growth inhibition incubated for 48 hrs by propidium iodide staining based flow cytometry assay; type: functional
[17] = system: HT-29; assay: Antiproliferative activity against human HT-29 cells assessed as cell growth inhibition measured after 72 hrs by tetrazolium staining based assay; type: functional; settings: HT-29, 72 h
[18] = target: ALK tyrosine kinase receptor (Homo sapiens, UniProt Q9UM73); assay: Inhibition of ALK (unknown origin) by TR-FRET assay
[19] = target: T1, Tyrosine-protein kinase JAK2; assay: Inhibition of JAK2 (unknown origin) by TR-FRET assay
[20] = target: Hepatocyte growth factor receptor (Homo sapiens, UniProt P08581); assay: Inhibition of c-met (unknown origin) by TR-FRET assay
[21] = Inhibition of starfish oocyte CDK1/Cyclin B using histone H1 as substrate incubated for 10 mins in presence of [gamma-32P]ATP by scintillation counter analysis; set-up: species or system Marthasterias glacialis
[22] = target: Cyclin-dependent kinase 5/CDK5 activator 1 (Homo sapiens, UniProt Q00535); assay: Inhibition of GST-fused CDK5/p25 (unknown origin); type: protein-complex assay
[23] = system: LoVo; assay: Cytotoxicity against human LoVo cells assessed as cell growth inhibition by MTT assay; type: functional, cell-based
[24] = target: Glycogen synthase kinase-3 (Sus scrofa, UniProt B2LUN4+I6LNT8); assay: Inhibition of porcine brain GSK-3alpha/beta incubated for 30 mins in presence of [33p]-gamma ATP by scintillation counter analysis
[25] = system: MCF7; assay: Cytotoxicity against human MCF7 cells assessed as cell growth inhibition by MTT assay; type: functional, cell-based
[26] = system: LNCaP; assay: Cytotoxicity against human LNCaP cells assessed as cell growth inhibition by MTT assay; type: functional, cell-based
[27] = system: K562; assay: Antiproliferative activity against imatinib treated human K562 cells assessed as cell growth inhibition measured after 72 hrs by MTT assay; type: functional, cell-based; settings: K562, 72 h
[28] = system: OCI-AML2; assay: Antiproliferative activity against human OCI-AML2 cells assessed as cell growth inhibition measured after 72 hrs by MTT assay; type: functional, cell-based; settings: OCI-AML2, 72 h
[29] = system: K562; assay: Antiproliferative activity against human K562 cells assessed as cell growth inhibition measured after 72 hrs by MTT assay; type: functional, cell-based; settings: K562, 72 h
[30] = system: OCI-AML2; assay: Antiproliferative activity against imatinib and Ara-C resistant human OCI-AML2 cells assessed as cell growth inhibition measured after 72 hrs by MTT assay; type: functional, cell-based; settings: OCI-AML2, 72 h
[31] = Antitumor activity against mouse 4T1-Luc cells xenografted in BALB/c mouse assessed as decrease in lung metastasis at 1 mg/kg, iv measured after 8 days […]; type: functional; set-up: scale not given: the % may be the effect or the level left; settings: time 8 day
[32] = system: A2058; assay: Antitumor activity against human A2058 cells xenografted in BALB/c mouse assessed as reduction in tumour volume at 50 mg/kg per day, po administered via oral gavage treated every other day for 14 days relative to control; type: functional; set-up: scale not given: the % may be the effect or the level left; settings: time 14 day
[33] = system: MCF7; assay: Antiproliferative activity against human MCF7 cells assessed as cell growth inhibition at 10 uM by crystal violet staining based assay relative to control; type: functional; set-up: scale not given: the % may be the effect or the level left

T1 sequence (O60674 whole entry): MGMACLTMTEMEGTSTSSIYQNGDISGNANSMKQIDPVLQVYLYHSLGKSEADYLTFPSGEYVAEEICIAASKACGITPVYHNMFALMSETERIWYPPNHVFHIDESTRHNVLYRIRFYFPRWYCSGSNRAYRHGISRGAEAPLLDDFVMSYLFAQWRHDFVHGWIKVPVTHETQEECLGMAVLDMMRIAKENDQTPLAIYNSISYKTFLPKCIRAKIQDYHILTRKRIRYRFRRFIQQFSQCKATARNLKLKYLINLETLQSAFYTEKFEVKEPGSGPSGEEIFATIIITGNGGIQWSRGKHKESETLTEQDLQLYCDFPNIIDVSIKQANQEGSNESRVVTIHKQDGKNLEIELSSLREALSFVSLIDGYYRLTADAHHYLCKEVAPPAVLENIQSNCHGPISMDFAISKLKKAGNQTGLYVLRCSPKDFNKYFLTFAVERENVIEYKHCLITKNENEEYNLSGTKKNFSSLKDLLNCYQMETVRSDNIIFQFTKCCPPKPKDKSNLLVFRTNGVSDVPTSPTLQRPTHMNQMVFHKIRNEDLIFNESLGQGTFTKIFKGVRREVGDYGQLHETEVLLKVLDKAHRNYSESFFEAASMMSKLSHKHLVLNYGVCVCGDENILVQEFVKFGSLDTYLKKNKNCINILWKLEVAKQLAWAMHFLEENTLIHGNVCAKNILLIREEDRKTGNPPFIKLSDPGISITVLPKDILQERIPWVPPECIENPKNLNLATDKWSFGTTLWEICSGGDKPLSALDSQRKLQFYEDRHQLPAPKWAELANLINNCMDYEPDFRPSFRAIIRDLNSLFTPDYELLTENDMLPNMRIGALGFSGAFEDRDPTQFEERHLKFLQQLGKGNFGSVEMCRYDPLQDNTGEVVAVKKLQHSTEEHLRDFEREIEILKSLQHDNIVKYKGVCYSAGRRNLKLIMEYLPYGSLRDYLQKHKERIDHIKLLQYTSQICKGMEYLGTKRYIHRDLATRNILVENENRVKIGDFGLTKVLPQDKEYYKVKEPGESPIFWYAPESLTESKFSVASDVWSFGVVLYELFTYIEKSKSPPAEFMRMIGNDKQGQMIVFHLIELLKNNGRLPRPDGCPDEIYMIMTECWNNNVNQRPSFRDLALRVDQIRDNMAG
Chain of Cyclin-dependent kinase 5/CDK5 activator 1 (Q00535 whole entry, the tested form may be a part): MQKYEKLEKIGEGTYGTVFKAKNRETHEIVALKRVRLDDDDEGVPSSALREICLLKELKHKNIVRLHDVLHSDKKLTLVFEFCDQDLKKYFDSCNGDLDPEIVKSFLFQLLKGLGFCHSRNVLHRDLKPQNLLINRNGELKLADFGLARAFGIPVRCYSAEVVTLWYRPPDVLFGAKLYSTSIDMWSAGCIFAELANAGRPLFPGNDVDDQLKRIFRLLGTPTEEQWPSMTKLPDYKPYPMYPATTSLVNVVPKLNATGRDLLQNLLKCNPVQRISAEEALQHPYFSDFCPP
Chain of Cyclin-dependent kinase 5/CDK5 activator 1 (Q15078 whole entry, further chain, the tested form may be a part): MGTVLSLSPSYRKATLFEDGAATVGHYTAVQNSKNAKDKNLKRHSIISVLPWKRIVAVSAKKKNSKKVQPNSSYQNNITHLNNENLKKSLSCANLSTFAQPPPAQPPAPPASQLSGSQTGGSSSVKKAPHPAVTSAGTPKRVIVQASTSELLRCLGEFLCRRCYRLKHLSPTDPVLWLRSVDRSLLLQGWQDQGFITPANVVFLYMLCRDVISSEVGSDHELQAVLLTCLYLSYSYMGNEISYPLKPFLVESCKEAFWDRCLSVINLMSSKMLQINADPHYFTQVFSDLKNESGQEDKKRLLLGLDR
Chain of Proto-oncogene tyrosine-protein kinase Src (P12931 2-536 limits assumed): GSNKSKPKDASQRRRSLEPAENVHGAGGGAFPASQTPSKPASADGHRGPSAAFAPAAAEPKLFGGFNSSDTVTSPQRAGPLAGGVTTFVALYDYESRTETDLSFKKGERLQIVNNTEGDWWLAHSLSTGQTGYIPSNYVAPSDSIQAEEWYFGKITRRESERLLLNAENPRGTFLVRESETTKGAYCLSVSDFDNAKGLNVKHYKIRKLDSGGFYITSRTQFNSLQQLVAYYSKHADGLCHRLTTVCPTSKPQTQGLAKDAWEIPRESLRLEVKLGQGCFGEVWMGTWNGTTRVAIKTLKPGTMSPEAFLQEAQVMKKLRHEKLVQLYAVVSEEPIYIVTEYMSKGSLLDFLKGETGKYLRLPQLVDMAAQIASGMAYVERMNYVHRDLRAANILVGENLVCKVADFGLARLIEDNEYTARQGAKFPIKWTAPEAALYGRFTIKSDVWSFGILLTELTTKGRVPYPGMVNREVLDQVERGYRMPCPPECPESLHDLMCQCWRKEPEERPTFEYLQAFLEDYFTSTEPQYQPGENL
Chain of Non-receptor tyrosine-protein kinase TYK2 (P29597 whole entry): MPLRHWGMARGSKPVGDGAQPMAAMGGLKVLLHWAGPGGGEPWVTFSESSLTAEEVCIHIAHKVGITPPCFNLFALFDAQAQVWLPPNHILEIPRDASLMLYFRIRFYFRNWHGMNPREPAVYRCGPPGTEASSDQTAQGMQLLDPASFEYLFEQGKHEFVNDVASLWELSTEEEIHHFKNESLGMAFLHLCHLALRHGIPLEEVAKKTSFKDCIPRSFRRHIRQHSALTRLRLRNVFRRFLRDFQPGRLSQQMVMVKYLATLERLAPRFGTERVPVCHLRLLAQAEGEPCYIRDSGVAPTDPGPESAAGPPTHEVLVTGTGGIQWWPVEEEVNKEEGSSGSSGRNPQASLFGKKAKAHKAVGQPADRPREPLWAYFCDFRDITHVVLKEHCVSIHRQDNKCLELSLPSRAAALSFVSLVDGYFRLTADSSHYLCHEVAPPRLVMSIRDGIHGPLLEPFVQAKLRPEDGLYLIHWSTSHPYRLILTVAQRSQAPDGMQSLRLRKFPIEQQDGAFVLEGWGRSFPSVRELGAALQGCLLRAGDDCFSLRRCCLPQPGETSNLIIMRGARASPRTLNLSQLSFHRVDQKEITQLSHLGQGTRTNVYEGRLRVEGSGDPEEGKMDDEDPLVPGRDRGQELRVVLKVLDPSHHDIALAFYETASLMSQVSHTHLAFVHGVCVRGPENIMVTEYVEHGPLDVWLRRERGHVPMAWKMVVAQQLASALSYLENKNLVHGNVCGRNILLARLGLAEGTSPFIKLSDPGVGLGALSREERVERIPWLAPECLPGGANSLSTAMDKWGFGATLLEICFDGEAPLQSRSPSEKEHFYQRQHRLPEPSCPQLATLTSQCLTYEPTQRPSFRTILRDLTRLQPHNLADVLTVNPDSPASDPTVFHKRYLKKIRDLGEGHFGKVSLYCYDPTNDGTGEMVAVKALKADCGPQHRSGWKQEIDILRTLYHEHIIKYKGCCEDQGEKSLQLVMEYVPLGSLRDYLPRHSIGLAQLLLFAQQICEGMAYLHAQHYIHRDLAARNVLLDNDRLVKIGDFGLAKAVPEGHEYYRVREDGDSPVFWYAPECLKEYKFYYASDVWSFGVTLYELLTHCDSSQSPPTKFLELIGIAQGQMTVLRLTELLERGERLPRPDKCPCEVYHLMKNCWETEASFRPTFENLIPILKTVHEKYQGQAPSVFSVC
Chain of Hepatocyte growth factor receptor (P08581 whole entry): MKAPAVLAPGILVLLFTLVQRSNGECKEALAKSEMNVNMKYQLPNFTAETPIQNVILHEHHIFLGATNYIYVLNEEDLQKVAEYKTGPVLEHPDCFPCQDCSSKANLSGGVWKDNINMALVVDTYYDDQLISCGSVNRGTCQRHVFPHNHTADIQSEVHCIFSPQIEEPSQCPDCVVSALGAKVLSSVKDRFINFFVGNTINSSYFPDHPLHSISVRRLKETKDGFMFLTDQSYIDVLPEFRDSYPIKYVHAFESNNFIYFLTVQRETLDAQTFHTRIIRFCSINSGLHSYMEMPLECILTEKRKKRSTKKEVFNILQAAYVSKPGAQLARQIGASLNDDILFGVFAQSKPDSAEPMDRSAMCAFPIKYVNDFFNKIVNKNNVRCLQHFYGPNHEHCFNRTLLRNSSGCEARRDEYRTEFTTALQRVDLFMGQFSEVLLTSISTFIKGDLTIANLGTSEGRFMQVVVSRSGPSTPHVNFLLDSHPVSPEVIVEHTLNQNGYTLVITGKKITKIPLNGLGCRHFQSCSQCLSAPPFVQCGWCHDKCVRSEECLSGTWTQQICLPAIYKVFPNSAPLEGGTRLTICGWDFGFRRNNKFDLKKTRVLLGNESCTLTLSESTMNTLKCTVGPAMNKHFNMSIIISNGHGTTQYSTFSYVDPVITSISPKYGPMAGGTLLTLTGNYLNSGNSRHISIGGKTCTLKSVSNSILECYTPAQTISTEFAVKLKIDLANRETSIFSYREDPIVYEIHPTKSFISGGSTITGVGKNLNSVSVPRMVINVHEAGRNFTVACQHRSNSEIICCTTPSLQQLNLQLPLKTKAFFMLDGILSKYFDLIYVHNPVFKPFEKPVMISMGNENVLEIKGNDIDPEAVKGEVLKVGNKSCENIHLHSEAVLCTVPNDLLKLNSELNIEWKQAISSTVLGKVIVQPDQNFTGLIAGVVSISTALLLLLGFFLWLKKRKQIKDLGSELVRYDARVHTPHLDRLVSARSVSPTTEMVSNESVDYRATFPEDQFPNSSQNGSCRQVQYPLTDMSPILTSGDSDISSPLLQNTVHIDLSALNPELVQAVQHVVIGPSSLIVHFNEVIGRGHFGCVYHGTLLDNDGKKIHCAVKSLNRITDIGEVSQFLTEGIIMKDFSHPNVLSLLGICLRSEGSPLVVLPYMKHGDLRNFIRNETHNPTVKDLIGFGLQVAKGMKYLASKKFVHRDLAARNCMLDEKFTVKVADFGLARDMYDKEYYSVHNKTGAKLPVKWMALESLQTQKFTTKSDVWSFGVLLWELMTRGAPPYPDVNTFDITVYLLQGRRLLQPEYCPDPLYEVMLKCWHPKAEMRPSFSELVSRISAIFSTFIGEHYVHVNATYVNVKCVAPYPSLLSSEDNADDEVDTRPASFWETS

Structure (SMILES): O=C1Nc2ccccc2/C1=C1/Nc2ccccc2/C1=N\OCC1CO1 (stereo not drawn)
IC50 [1]: 160 nM
IC50 [2]: 70 nM

Structure (SMILES): O=C1Nc2ccc([N+](=O)[O-])cc2/C1=C1/Nc2ccc(O)cc2/C1=N\O
IC50 [12]: 783 nM
Activity [13]: 90%

Structure (SMILES): O=C1Nc2ccc(NC(=O)C(c3ccccc3)c3ccccc3)cc2/C1=C1/Nc2ccccc2/C1=N\O
IC50 [27]: 3650 nM
IC50 [28]: 2420 nM
IC50 [29]: 2910 nM
IC50 [30]: 2360 nM

Structure (SMILES): O=C1Nc2cc(Br)ccc2/C1=C1/Nc2ccccc2/C1=N\O [6BIO]
Activity [31]: 80%
Activity [32]: 80%
Activity [33]: 75%

Further lines, with some results ahead:

IC50 [3]: 10.7 nM
IC50 [4]: 10.7 nM
IC50 [5]: 10.7 nM
IC50 [6]: 10.7 nM
IC50 [7]: 10.7 nM
IC50 [8]: 760 nM
IC50 [9]: 760 nM
IC50 [10]: 760 nM
IC50 [11]: 10.7 nM
Structure (SMILES): COc1ccc2c(c1)/C(=C1/Nc3ccccc3/C1=N\OCC(O)CO)C(=O)N2 (stereo not drawn)

IC50 [14]: 7.89 nM
IC50 [15]: 7.89 nM
Structure (SMILES): O=C1Nc2ccc(C(=O)O)cc2/C1=C1/Nc2ccccc2/C1=N\O
GI50 [16]: > 1000 nM

IC50 [17]: 4220 nM
IC50 [18]: > 10000 nM
IC50 [19]: > 10000 nM
IC50 [20]: > 10000 nM
Structure (SMILES): O=C1Nc2ccc(C(=O)N3CCCCC3)cc2/C1=C1/Nc2ccccc2/C1=N\O

IC50 [22]: > 100000 nM
IC50 [24]: > 100000 nM
Structure (SMILES): CN1C(=O)/C(=C2\Nc3ccccc3\C2=N/O)c2ccccc21
IC50 [21]: 73000 nM
IC50 [23]: > 100000 nM
IC50 [25]: 58600 nM
IC50 [26]: 68900 nM
